This is an account of results in EP4813463A2, “TYK2 INHIBITORS AND COMPOSITIONS AND METHODS THEREOF” (Lynk Pharmaceuticals Co. Ltd., priority 2023, dated 2024).

For one assay, the target named is T1, JAK1-JH2 domain (Homo sapiens, UniProt P23458).
T1 construct: JAK1-JH2 domain or TYK2-JH2 domain enzyme in assay buffer
The assay can be described thus: Binding activity test for JH2 domain of JAK1 (Tb-antibody/tracer FRET). As to conditions: JH2 domain enzyme; 60 min at 25°C, then 4°C overnight; read-out: JAK1 JH2 Binding IC50. As to the method: Binding Activity test for JH2 domain of JAK1 and TYK2 […] Add 8μL/well in echo source plate, echo will add 75nL/well with 3-fold serial dilution for 11 points in assay plate. 75nL DMSO for high control and low control. […] For low control, add 5μL/well assay buffer. And then spin down at 1000rpm and centrifuge for 30 seconds. After enzyme system prepared, add 5μL of Tb-antibody solution into each well of assay plate. Spin down at 1000 rpm and centrifuge for 30sec. After Tb-antibody added, also add 5μL of tracer into the assay plate. Spin down at 1000rpm and centrifuge for 30sec. Incubate for […] at 25°C firstly and then continue to incubate the plate at 4°C overnight. Read by envision in FRET mode. The Luminescence value was recorded by a multi-label reader Envision (PerkinElmer). […] Table 2. IC50 on JH2 domain activity (nM)

The target in the next assay is T2, TYK2-JH2 domain (Homo sapiens, UniProt P29597).
T2 construct: JAK1-JH2 domain or TYK2-JH2 domain enzyme in assay buffer
T2 sequence (P29597 589-875 limits assumed): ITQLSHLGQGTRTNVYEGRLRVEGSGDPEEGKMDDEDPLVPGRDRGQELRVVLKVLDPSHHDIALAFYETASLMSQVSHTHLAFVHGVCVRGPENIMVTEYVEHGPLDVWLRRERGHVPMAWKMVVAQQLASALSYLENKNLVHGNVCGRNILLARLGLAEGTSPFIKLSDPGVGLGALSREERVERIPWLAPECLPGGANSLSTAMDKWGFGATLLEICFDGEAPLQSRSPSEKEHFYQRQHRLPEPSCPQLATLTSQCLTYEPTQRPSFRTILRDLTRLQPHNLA
Nature of the assay: Binding activity test for JH2 domain of TYK2 (Tb-antibody/tracer FRET). As to conditions: for IC50: JH2 domain enzyme, 60 min at 25°C, then 4°C overnight, read-out: TYK2 JH2 Binding IC50; for JAK1/TYK2 selectivity: ratio of JAK1 JH2 to TYK2 JH2 binding IC50. In short, it runs like this:
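Competitive TR-FRET binding: compounds dispensed as an 11-point 3-fold dilution series, then Tb-labelled antibody and tracer added to the JH2 protein system. Incubated at 25°C, then overnight at 4°C; FRET signal read on Envision and IC50 (nM) derived.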

Assay [1] has as its system Ba/F3-FL-TYK2-P760L cells. Nature of the assay: Anti-proliferative assay in engineered Ba/F3 cells (Cell-Titer Glo, 72 h). In kind it is cell-based. The conditions noted are these: Mus musculus, BaF3, 72 h, 72 h compound treatment, concentration that causes 50% growth inhibition, read-out: Baf3-FL-T2P760L. As to the method: Dimerization domain of Tel protein fused with JAK kinase domain was permanently transduced into Ba/F3 cells, whose proliferation is dependent on JAK activity in the absence of IL-3 induction. These engineered Ba/F3-FL-TYK2-P760L cells were used to monitor JAK inhibitory activities of the compounds in the cellular. Ba/F3 cells were cultured in RPMI-1640 (Corning) containing 10% fetal bovine serum. Cells were seeded at 2000/well of white flat bottom 96-well plates. The well containing medium only was used as background control. After 24h growth, cells were treated with compounds. The test compounds were dissolved in DMSO to a stock concentration of 20 mM. 3-fold serially diluted compounds for 9 concentrations with top concentration of 20 µM was added into the each well. The final DMSO concentration was 0.1%. The cells continued to grow at 37°C in 5% CO2 for 72 h after compound treatment. The viability was measured by cellular ATP determination using the Cell-Titer Glo luciferase reagent (Promega). The Luminescence value was recorded by a multi-label reader Envision (PerkinElmer). Inhibition Rate was calculated relative to vehicle (DMSO) treated control wells using following formula: % Inhibition = 100−(RLU_compound−RLU_blank)/(RLU_control−RLU_blank) × 100% [formula] wherein • RLU_compound = the relative light unit of cells treated with test compounds • RLU_blank = the relative light unit of medium with DMSO only • RLU_control = the relative light unit of cells treated with DMSO only
Table 4. Ba/F3-FL-TYK2-P760L Cells IC50 Values of Exemplary Compounds

T1 sequence (P23458 583-855 limits assumed): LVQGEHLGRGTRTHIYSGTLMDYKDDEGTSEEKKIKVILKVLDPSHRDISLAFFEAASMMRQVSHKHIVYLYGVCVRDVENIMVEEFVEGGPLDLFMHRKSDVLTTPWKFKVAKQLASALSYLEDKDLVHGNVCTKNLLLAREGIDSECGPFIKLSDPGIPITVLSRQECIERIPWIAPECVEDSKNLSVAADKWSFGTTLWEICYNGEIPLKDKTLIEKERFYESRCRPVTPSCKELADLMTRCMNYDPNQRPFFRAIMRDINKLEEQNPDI

Regarding `CCn1nc(Nc2cc(NC(=O)C3CC3)ncc2C(=O)OC)c2c(OC)c(C(OC)C(F)(F)F)ccc21` (single isomer, unassigned) [Example 66A, Methyl (R*)-6-(cyclopropanecarboxamido)-4-((1-ethyl-4-methoxy-5-(2,2,2-trifluoro-1-methoxyethyl)-1H-indazol-3-yl)amino)nicotinate], the IC50 on JAK1-JH2 domain was over 298 nM. Moreover, on TYK2-JH2 domain, the IC50 worked out at 2.81 nM and the JAK1/TYK2 selectivity worked out at 106.23.
In the case of `COC(=O)c1cnc(NC(=O)C2CC2)cc1Nc1nsc2ccc(C(OC)C(F)(F)F)c(OC)c12` (single isomer, unassigned) [Example 67A, Methyl (S*)-6-(cyclopropanecarboxamido)-4-((4-methoxy-5-(2,2,2-trifluoro-1-methoxyethyl)benzo[d]isothiazol-3-yl)amino)nicotinate], the IC50 on JAK1-JH2 domain was 18.6 nM. Further, on TYK2-JH2 domain, the IC50 came out at 0.21 nM and the JAK1/TYK2 selectivity came to 88.72.
The like results for `COC(=O)c1cnc(NC(=O)C2CC2)cc1Nc1nsc2ccc(C(OC)C(F)(F)F)c(OC)c12` (single isomer, unassigned) [Example 67B, Methyl (R*)-6-(cyclopropanecarboxamido)-4-((4-methoxy-5-(2,2,2-trifluoro-1-methoxyethyl)benzo[d]isothiazol-3-yl)amino)nicotinate] were, in that order, 119 nM, 0.32 nM and 372.97.
In the case of `CCn1nc(Nc2cc(NC(=O)C3CC3)ncc2C(=O)OC)c2c(OC)c(C(O)C(F)(F)F)ccc21` (single isomer, unassigned) [Example 70B, Methyl (R*)-6-(cyclopropanecarboxamido)-4-((1-ethyl-4-methoxy-5-(2,2,2-trifluoro-1-hydroxyethyl)-1H-indazol-3-yl)amino)nicotinate], the IC50 was found to be 47.2 nM on JAK1-JH2 domain and 2.12 nM at TYK2-JH2 domain. Moreover, the JAK1/TYK2 selectivity on TYK2-JH2 domain is recorded as 22.26.
In the case of `[2H]C([2H])([2H])CC(=O)c1cnc(NC(=O)C2CC2)cc1Nc1nn(C)c2ccc([C@@H](O)C(F)(F)F)c(OC)c12` [Example 54B, (R)-N-(4-((4-methoxy-1-methyl-5-(2,2,2-trifluoro-1-hydroxyethyl)-1H-indazol-3-yl)amino)-5-(propanoyl-3,3,3-d3)pyridin-2-yl)cyclopropanecarboxamide], the IC50 at JAK1-JH2 domain was determined as 7.08 nM; at TYK2-JH2 domain it was 0.433 nM. Further, the JAK1/TYK2 selectivity on TYK2-JH2 domain is recorded as 16.36.
`[2H]C([2H])([2H])n1nc(Nc2cc(NC(=O)C3CC3)ncc2C(=O)OC)c2c(OC)c(C(OC)C(F)F)ccc21` (stereo not shown) [Example 69, Methyl 6-(cyclopropanecarboxamido)-4-((5-(2,2-difluoro-1-methoxyethyl)-4-methoxy-1-(methyl-d3)-1H-indazol-3-yl)amino)nicotinate]: at JAK1-JH2 domain, the IC50 came to 14.9 nM. On TYK2-JH2 domain, the IC50 turned out to be 0.13 nM and the JAK1/TYK2 selectivity is 114.31.
With `CCONC(=O)c1cnc(NC(=O)C2CC2)cc1Nc1nn(C)c2ccc(C(OC)C(F)(F)F)c(OC)c12` (stereo not shown) [Example 75, 6-(Cyclopropanecarboxamido)-N-ethoxy-4-((4-methoxy-1-methyl-5-(2,2,2-trifluoro-1-methoxyethyl)-1H-indazol-3-yl)amino)nicotinamide], on JAK1-JH2 domain, the IC50 was determined as 24.7 nM. Also, at TYK2-JH2 domain, the IC50 was determined as 0.09 nM and the JAK1/TYK2 selectivity is given as 274.63.
As for `CCOC(=O)c1nnc(NC(=O)C2CC2)cc1Nc1cccc(-c2ncn(C)n2)c1OC` [Example 86, Ethyl 6-(cyclopropanecarboxamido)-4-((2-methoxy-3-(1-methyl-1H-1,2,4-triazol-3-yl)phenyl)amino)pyridazine-3-carboxylate], the IC50 on JAK1-JH2 domain and on TYK2-JH2 domain was over 298 nM in each case.
For `[2H]C([2H])([2H])OC(=O)c1nnc(NC(=O)C2CC2)cc1Nc1nc2ccc(N3CC(OC)C3)cn2n1` [Example 125, Methyl-d3 6-(cyclopropanecarboxamido)-4-((6-(3-methoxyazetidin-1-yl)-[1,2,4]triazolo[1,5-a]pyridin-2-yl)amino)pyridazine-3-carboxylate], the IC50 at JAK1-JH2 domain was over 298 nM. In addition, at TYK2-JH2 domain, the IC50 came to 52.4 nM and the JAK1/TYK2 selectivity is recorded as over 5.70.
Turning to `CCC(=O)c1cnc(NC(=O)C2CC2)nc1Nc1cccc(-c2cnn(C)n2)c1OC` [Example 158, N-(4-((2-methoxy-3-(2-methyl-2H-1,2,3-triazol-4-yl)phenyl)amino)-5-propionylpyrimidin-2-yl)cyclopropanecarboxamide], the IC50 was determined as 68.4 nM in assay [1] and 0.496 nM on TYK2-JH2 domain.
For `COC(=O)c1cnc(NC(=O)C2CC2)cc1Nc1nn(C)c2ccc(C3COCCO3)c(OC)c12` (stereo not shown) [Example 160, Methyl 4-((5-(1,4-dioxan-2-yl)-4-methoxy-1-methyl-1H-indazol-3-yl)amino)-6-(cyclopropanecarboxamido)nicotinate], the results for the IC50 (in assay [1]; on TYK2-JH2 domain) were 119 nM and 0.709 nM, respectively.
Turning to `COC(=O)c1cnc(NC(=O)C2CC2)cc1Nc1nn(C)c2ccc(C3(C(F)(F)F)CC3)c(OC)c12` [Example 161, Methyl 6-(cyclopropanecarboxamido)-4-((4-methoxy-1-methyl-5-(1-(trifluoromethyl)cyclopropyl)-1H-indazol-3-yl)amino)nicotinate], the IC50 in assay [1] turned out to be 74 nM; on TYK2-JH2 domain, 0.568 nM.
Turning to `COC(=O)c1cnc(NC(=O)C2CC2)cc1Nc1nn(C)c2ccc(C3(C#N)CC3)c(OC)c12` [Example 162, Methyl 4-((5-(1-cyanocyclopropyl)-4-methoxy-1-methyl-1H-indazol-3-yl)amino)-6-(cyclopropanecarboxamido)nicotinate], the figures for the IC50 (in assay [1]; at TYK2-JH2 domain) were 26.6 nM and 0.261 nM, respectively.
`COC(=O)c1cnc(NC(=O)C2CC2)cc1Nc1nn(C(F)(F)F)c2ccc(C(OC)C(F)(F)F)c(OC)c12` (stereo not shown) [Example 163, Methyl 6-(cyclopropanecarboxamido)-4-((4-methoxy-5-(2,2,2-trifluoro-1-methoxyethyl)-1-(trifluoromethyl)-1H-indazol-3-yl)amino)nicotinate]: the results for the IC50 (in assay [1]; at TYK2-JH2 domain) were 56.1 nM and 0.488 nM, respectively.
As for `COC(=O)c1cnc(NC(=O)C2CC2)cc1Nc1nn(C)c2ccc(CO)c(OC)c12` [Example 164, Methyl 6-(cyclopropanecarboxamido)-4-((5-(hydroxymethyl)-4-methoxy-1-methyl-1H-indazol-3-yl)amino)nicotinate], the IC50 in assay [1] came out at 50.1 nM; at TYK2-JH2 domain, 0.481 nM.
Regarding `COC(=O)c1cnc(NC(=O)C2CC2)cc1Nc1nn(C)c2ccc(C(OC)C(C)OC)c(OC)c12` (stereo not shown) [Example 165, Methyl 6-(cyclopropanecarboxamido)-4-((5-(1,2-dimethoxypropyl)-4-methoxy-1-methyl-1H-indazol-3-yl)amino)nicotinate], the IC50 came to 281 nM in assay [1] and 2.71 nM at TYK2-JH2 domain.
As for `COC(=O)c1cnc(NC(=O)C2CC2)cc1Nc1nn(C)c2ccc([C@H](OC)C(C)OC)c(OC)c12` (stereo partly drawn) [Example 166, Methyl 6-(cyclopropanecarboxamido)-4-((5-((1S)-1,2-dimethoxypropyl)-4-methoxy-1-methyl-1H-indazol-3-yl)amino)nicotinate], the IC50 is 113 nM in assay [1] and 1.11 nM on TYK2-JH2 domain.
`CCC(F)(F)c1cnc(NC(=O)C2CC2)cc1Nc1nccc2c1N(C)C(C)c1nn(C)nc1-2` (stereo not shown) [Example 178, N-(5-(1,1-Difluoropropyl)-4-((2,4,5-trimethyl-4,5-dihydro-2H-[1,2,3]triazolo[4,5-c][1,7]naphthyridin-6-yl)amino)pyridin-2-yl)cyclopropanecarboxamide]: the results for the IC50 (in assay [1]; at TYK2-JH2 domain) were 35 nM and 3.16 nM, respectively.
Consider `COC(=O)c1cnc2cc1Nc1nn(c3ccc(C(OC)C(F)(F)F)c(OC)c13)CCOCc1nc(ccc1F)N2` (stereo not shown) [Example 179, Methyl 12-fluoro-23-methoxy-22-(2,2,2-trifluoro-1-methoxyethyl)-15-oxa-2,6,8,18,25,26-hexaazapentacyclo[16.6.1.1^{3,7}.1^{9,13}.0^{19,24}]heptacosa-1(25),3(27),4,6,9,11,13(26),19,21,23-decaene-4-carboxylate], for which the IC50 in assay [1] came out at 30.9 nM; on TYK2-JH2 domain, 0.481 nM.
